{"source": "patent US20050037033A1", "about": "“Microbicidal compositions and methods and use” (priority 2003, published 2005)", "key": {"[1]": {"test_system": "Pseudo fluorescens", "test": "Aerobe inhibition assay", "type": "cell-based", "conditions": "1 strain, read-out: Minimum Inhibitory Concentrations (MICs)", "procedure": "(§1) The aerobic organisms were suspended into saline to the turbidity of the 0.5 McFarland standard, diluted 1:10, pipetted into the wells of the Steers replicator head, and stamped onto the Mueller Hinton agar plates containing the serial dilutions of the antimicrobials.\n(§2) The anaerobes were incubated in an anaerobic chamber at 37° C. for 2 days; aerobes were incubated in ambient air at 36° C. for 20h."}, "[2]": {"test_system": "E. coli", "test": "Aerobe inhibition assay", "type": "cell-based", "conditions": "2 strains", "procedure": "as §1, §2"}, "[3]": {"test_system": "C. albicans", "test": "Aerobe inhibition assay", "type": "cell-based", "conditions": "Candida albicans; 2 strains; read-out: Minimum Inhibitory Concentrations (MICs)", "procedure": "as §1, §2"}, "[4]": {"test_system": "Enterococcus faecium", "test": "Aerobe inhibition assay", "type": "cell-based", "conditions": "1 strain, read-out: Minimum Inhibitory Concentrations (MICs)", "procedure": "as §1, §2"}, "[5]": {"test_system": "Enterococcus faecalis", "test": "Aerobe inhibition assay", "type": "cell-based", "conditions": "1 strain, read-out: Minimum Inhibitory Concentrations (MICs)", "procedure": "as §1, §2"}, "[6]": {"test_system": "Pseudo aerug", "test": "Aerobe inhibition assay", "type": "cell-based", "conditions": "1 strain, read-out: Minimum Inhibitory Concentrations (MICs)", "procedure": "as §1, §2"}, "[7]": {"test_system": "Strep agalactiae", "test": "Aerobe inhibition assay", "type": "cell-based", "conditions": "2 strains", "procedure": "as §1, §2"}, "[8]": {"test_system": "K1 pneumoniae", "test": "Aerobe inhibition assay", "type": "cell-based", "conditions": "2 strains", "procedure": "as §1, §2"}, "[9]": {"test_system": "Strep pyogenes", "test": "Aerobe inhibition assay", "type": "cell-based", "conditions": "2 strains, read-out: Minimum Inhibitory Concentrations (MICs)", "procedure": "as §1, §2"}, "[10]": {"test_system": "Listeria monocytogenes", "test": "Aerobe inhibition assay", "type": "cell-based", "conditions": "2 strains, read-out: Minimum Inhibitory Concentrations (MICs)", "procedure": "as §1, §2"}, "[11]": {"test": "Cytotoxicity assay", "type": "cell-based", "procedure": "The cells listed in Table 4 were incubated for the indicated period of time with different concentrations of ciclopiroxolamine and cell viability was measured by the 3-(4,5-dimethylthiazol-2-yl)-2,5-diphenyltetrazolium bromide (MTT) assay or by treatment with propidium iodide and fluorescence. Percent viability was calculated with respect to the viability of mock-exposed cells (cells incubated without compounds).\nIn the MTT assay, the effect of each agent on cell viability was determined using an assay in which dehydrogenases in viable cells cleave the compound 3-(4,5-dimethylthiazol-2-yl)-2,5-diphenyltetrazolium bromide (MTT), yielding a purple product (formazan) which can be measured spectrophotometrically (Pauwels et al., 1988). Cells were seeded into 96 well plates at a density of 3×10^4 cells/well 24 hours prior to introduction of the microbicides. Agents were diluted in as previously indicated. Agents were added to triplicate wells in half-log serial dilutions. Cells were incubated in the absence or presence of each agent at 37° C. under 5% CO2 and 90% humidity for 2 hours. At the conclusion of each experiment, cells were washed, replenished with fresh medium and incubated with MTT (250 μl/well) for 2 hours at 37° C. Following removal of the medium (by aspiration), intracellular formazan crystals were solubilized with 10% Triton X-100 in acidified isopropanol. The resulting solutions were assayed spectrophotometrically at 570 nm and corrected for non-specific absorption at 690 nm. In this assay, measured absorbance is proportional to the viable cell number, and inversely proportional to the degree of cytotoxicity."}, "[12]": {"test_system": "Peptrostrep. magnus", "test": "Anaerobe inhibition assay", "type": "cell-based", "conditions": "2 strains, read-out: Minimum Inhibitory Concentrations (MICs)"}, "[13]": {"test_system": "C. glabrata", "test": "Aerobe inhibition assay", "type": "cell-based, Candida glabrata", "conditions": "Nakaseomyces glabratus; 3 strains; read-out: Minimum Inhibitory Concentrations (MICs)", "procedure": "as §1, §2"}, "[14]": {"test_system": "C. trachomatis Serovar E elementary bodies", "test": "Chlamydia trachomatis inhibition assay", "type": "cell-based", "procedure": "C. trachomatis Serovar E elementary bodies ([…]; 10^4 IFU) were incubated for 4 hours on ice with compound, the mixture was inoculated into HeLa cell monolayers, and incubated for 1 hour. The inoculum was removed, the medium changed and the cells incubated overnight (20-22 hours). The cells were removed, fixed, permeabilized, and the infected cells detected by fluorescently tagged antibody and flow cytometry."}, "[15]": {"test_system": "Prevotella bivia", "test": "Anaerobe inhibition assay", "type": "cell-based", "conditions": "2 strains, read-out: Minimum Inhibitory Concentrations (MICs)"}, "[16]": {"test_system": "Prevotella disiens", "test": "Anaerobe inhibition assay", "type": "cell-based", "conditions": "2 strains, read-out: Minimum Inhibitory Concentrations (MICs)"}, "[17]": {"test_system": "Bacteroides fragilis", "test": "Anaerobe inhibition assay", "type": "cell-based", "conditions": "1 strain, read-out: Minimum Inhibitory Concentrations (MICs)"}, "[18]": {"test_system": "N. gonorrheae, strain ms11a", "test": "Neisseria gonorrhea inhibition assay", "type": "cell-based", "conditions": "gonococcal agar, overnight, colonies counted", "procedure": "Compound was incorporated into gonococcal agar, the agar/agent mixture was poured on culture dishes and inoculated with N. gonorrheae, strain ms11a (10 μl of each dilution: 10^−1 to 10^−5 of a starting 0.5 Mcfarland solution which is equal to 1.5×10^8 colony forming units (cfu)/ml). The plates were incubated overnight (20-22 hours) and the colonies counted."}, "[19]": {"test_system": "HIV-IRF", "test": "PC assay (cells pre-treated with compound, washed, then virus)", "type": "cell-based", "conditions": "Human immunodeficiency virus 1, PM1, read-out: 50% Effective Concentrations (IC50)", "procedure": "PC assay: Indicator T cells (PM-1; 10^5/well) were pre-treated with compound for 1 hour at 37° C., compound was removed by washing with 4 volumes of PBS, treated cells were added to immobilized virus (HIV-IRF; 10^3 TCID50) and incubated for 8 days.\nIn each of the assays above, viral replication was monitored after 8 days by measuring reverse transcriptase activity."}, "[20]": {"test_system": "HSV-2", "test": "HSV-2 virucidal assay", "type": "cell-based", "conditions": "Human alphaherpesvirus 2, 1 h, at 400 μg/ml (highest concentration tested); 60 min at 37° C.", "procedure": "The virucidal activities of ciclopiroxolamine against HSV-2 were tested by mixing various concentrations of the test compound with 2×10^5 PFU of HSV-2, respectively, and incubating at 37° C. for 60 min. The culture medium was included as a […] control. At the end of incubation, the mixtures were diluted 1 in 1000 with culture medium. The infectivity of treated virus was determined by a standard viral plaque assay. Briefly, confluent Vero cells were washed with PBS and subsequently infected with 1 ml of treated mixture at 37° C. for 1 h. After viral inoculum was removed, the infected cells were washed with PBS and overlaid with 0.5% methylcellulose in culture medium. The infected cells were incubated at 37° C. for 2 days to allow the plaques to develop."}, "[21]": {"test_system": "Staph. aureus", "test": "Aerobe inhibition assay", "type": "cell-based, Staphylococcus aureus", "conditions": "3 strains", "procedure": "as §1, §2"}, "[22]": {"test_system": "Peptostrep tetradius", "test": "Anaerobe inhibition assay", "type": "cell-based", "conditions": "1 strain, read-out: Minimum Inhibitory Concentrations (MICs)"}, "[23]": {"conditions": "read-out: Minimum Inhibitory Concentrations (MICs)"}}, "note": "Like-named read-outs stand apart in the source and are kept apart here."}
{"compound": "Cc1cc(C2CCCCC2)n(O)c(=O)c1.NCCO", "note": "[CO, 6-Cyclohexyl-1-hydroxy-4-methyl-2-(1H)-pyridone ethanolamine salt]", "values": [{"measurement": "MIC", "setting": "[1]", "value": 160, "unit": "µg/mL"}, {"measurement": "Minimum Inhibitory Concentrations (MICs)", "setting": "[2]", "value": 80, "unit": "µg/mL"}, {"measurement": "MIC", "setting": "[2]; Escherichia coli, read-out: Minimum Inhibitory Concentrations (MICs)", "value": 40, "unit": "µg/mL"}, {"measurement": "MIC", "setting": "[3]", "value": 20, "unit": "µg/mL"}, {"measurement": "MIC", "setting": "[4]", "value": 40, "unit": "µg/mL"}, {"measurement": "MIC", "setting": "[5]", "value": 80, "unit": "µg/mL"}, {"measurement": "MIC", "setting": "[6]", "value": 80, "unit": "µg/mL"}, {"measurement": "Minimum Inhibitory Concentrations (MICs)", "setting": "[7]", "value": 160, "unit": "µg/mL"}, {"measurement": "MIC", "setting": "[7]; [23]", "value": 80, "unit": "µg/mL"}, {"measurement": "Minimum Inhibitory Concentrations (MICs)", "setting": "[8]", "value": 80, "unit": "µg/mL"}, {"measurement": "MIC", "setting": "[8]; [23]", "value": 40, "unit": "µg/mL"}, {"measurement": "MIC", "setting": "[9]", "value": 80, "unit": "µg/mL"}, {"measurement": "MIC", "setting": "[10]", "value": 40, "unit": "µg/mL"}, {"measurement": "CC50 at 2 h", "setting": "[11]; African green monkey, Vero cells, Series 4, 2 hour incubation", "value": "> 200", "unit": "µg/mL"}, {"measurement": "CC50 at 2 h", "setting": "[11]; human, P4-R5 cells, Series 2, P4-R5, 2 hour incubation, 100 μg/ml highest conc tested", "value": "> 100", "unit": "µg/mL"}, {"measurement": "CC50 at 2 h", "setting": "[11]; human, VK-2/E6E7 cells (vaginal epithelium cell line), Series 2, VK-2/E6E7, 2 hour incubation", "value": 100, "unit": "µg/mL"}, {"measurement": "MIC", "setting": "[12]", "value": 40, "unit": "µg/mL"}, {"measurement": "MIC", "setting": "[13]", "value": 20, "unit": "µg/mL"}, {"measurement": "IC50", "setting": "[14]", "value": 1600, "unit": "µg/mL"}, {"measurement": "IC50", "setting": "[14]; HeLa cell monolayers, flow cytometry", "value": 1630, "unit": "µg/mL"}, {"measurement": "MIC", "setting": "[15]", "value": 40, "unit": "µg/mL"}, {"measurement": "MIC", "setting": "[16]", "value": 40, "unit": "µg/mL"}, {"measurement": "MIC", "setting": "[17]", "value": 40, "unit": "µg/mL"}, {"measurement": "IC50", "setting": "[18]", "value": 1, "unit": "µg/mL"}, {"measurement": "IC50", "setting": "[19]", "value": 0.96, "unit": "µg/mL"}, {"measurement": "inhibition at 400 µg/mL", "setting": "[20]", "value": 40, "unit": "%"}, {"measurement": "Minimum Inhibitory Concentrations (MICs)", "setting": "[21]", "value": 80, "unit": "µg/mL"}, {"measurement": "MIC", "setting": "[21]; Staphylococcus aureus, read-out: Minimum Inhibitory Concentrations (MICs)", "value": 40, "unit": "µg/mL"}, {"measurement": "MIC", "setting": "[22]", "value": 40, "unit": "µg/mL"}]}
